Laboratory results: PMC10797628
Numbering of substitutions follows the chain as printed.

What was measured:
[1] = system: mouse model of fragile X syndrome; set-up: method as in PMID 32566916; details: cited from earlier work
[2] = set-up: method as in PMID 26011730; details: cited from earlier work
[3] = molecular target: T7.39N 5-HT1B receptor (Homo sapiens, UniProt P28222, T355N); assay: cAMP accumulation in HEK293T cells, T7.39N 5-HT1B; format: cell-based; set-up: host or cells: HEK293T; details: point-mutated receptor, 3 independent experiments, read-out: pEC50 5-HT1B Receptor N7.39T (converted)
Sequence of T7.39N 5-HT1B receptor (P28222 whole entry T355N): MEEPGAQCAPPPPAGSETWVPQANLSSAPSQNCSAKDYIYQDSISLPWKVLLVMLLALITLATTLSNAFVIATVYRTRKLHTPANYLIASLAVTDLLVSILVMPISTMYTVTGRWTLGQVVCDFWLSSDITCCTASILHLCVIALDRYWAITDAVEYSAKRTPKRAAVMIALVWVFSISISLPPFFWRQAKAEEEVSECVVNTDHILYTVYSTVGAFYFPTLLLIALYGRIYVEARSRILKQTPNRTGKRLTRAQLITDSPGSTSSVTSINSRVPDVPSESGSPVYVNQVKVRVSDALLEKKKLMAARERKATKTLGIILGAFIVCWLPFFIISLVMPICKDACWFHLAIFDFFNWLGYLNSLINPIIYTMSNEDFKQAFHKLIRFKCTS
Method: (§1) Briefly, cells transfected with the desired receptor construct and compounds were incubated in the dark for 90 min at 37 °C. After incubation, cAMP detection reagents were added, and TR-FRET was used to quantify the cAMP produced.
(§2) The functional activity of compounds was determined by stimulating cells expressing the desired receptor with FSK and test compound in parallel with 12 known concentrations of cAMP. The known concentrations of cAMP were used to create a standard curve for each experiment that was used to interpolate the unknown values of cAMP in wells with test compounds. […] The EC50 and EMAX values were determined using the “dose response – log[agonist] vs response (three parameter)” nonlinear regression model in Prism and transformed to pEC50 values, reported as mean ± SD.
(§3) Summary of functional assay conditions at various 5-HT1 receptor point mutation constructs.

[4] = molecular target: T1, V3.33I 5-HT1A receptor (Homo sapiens, UniProt P08908, V117I); assay: Radioligand binding, V3.33I 5-HT1A
T1 sequence (P08908 1-422 V117I): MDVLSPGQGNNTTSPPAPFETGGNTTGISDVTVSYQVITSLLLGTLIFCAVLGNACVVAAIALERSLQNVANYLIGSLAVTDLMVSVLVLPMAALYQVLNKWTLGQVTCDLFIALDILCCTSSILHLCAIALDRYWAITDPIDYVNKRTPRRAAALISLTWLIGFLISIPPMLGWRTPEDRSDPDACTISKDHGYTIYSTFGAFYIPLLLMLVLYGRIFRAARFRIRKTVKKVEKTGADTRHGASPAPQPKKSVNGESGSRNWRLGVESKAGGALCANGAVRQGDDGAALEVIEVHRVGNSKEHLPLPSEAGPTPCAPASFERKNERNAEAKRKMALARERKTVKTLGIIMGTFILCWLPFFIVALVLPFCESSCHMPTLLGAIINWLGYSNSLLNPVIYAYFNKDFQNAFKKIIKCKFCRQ
Method: (§4) 48 hours after transfection with the desired receptor construct, cells were isolated for saturation and competition binding assays as previously described.[47],[48],[57] Saturation and competition radioligand binding assays were conducted in an assay buffer consisting of 50 mM Tris HCl, 10 mM MgCl2, and 0.1 mM EDTA in filtered deionized water. […] Briefly, 5–10 μg of the receptor protein, as determined by a Thermo Fisher Pierce BCA protein assay kit, was incubated with 8 concentrations of radioligand in triplicate to determine total binding. […] Nonspecific binding was determined as above for saturation assays.
(§5) For radioligand binding data, nonspecific binding was subtracted from the total binding to get specific binding. Saturation binding data was fit to the “binding saturation-specific binding with hill slope” model. Competition binding data were fit to the “binding competition-one-site fit Ki” non-linear regression model and transformed to pKi values, reported as mean ± SD.
(§6) is 50 mM Tris HCl, 10 mM MgCl2 and 0.1 mM EDTA in filtered deionized water.

[5] = molecular target: T2, S5.42A 5-HT1A receptor (Homo sapiens, UniProt P08908, S199A); assay: Radioligand binding, S5.42A 5-HT1A
T2 sequence (P08908 1-422 S199A): T1 sequence (P08908 1-422 V117I) with I117V, S199A
Method: as §4, §5, §6

[6] = molecular target: T3, Y5.38A 5-HT1A receptor (Homo sapiens, UniProt P08908, Y195A); assay: cAMP accumulation in HEK293T cells, Y5.38A 5-HT1A; format: cell-based; set-up: mutated in house (Quikchange II) HTR01A0000; host or cells: HEK293T; details: point-mutated receptor, 3 independent experiments, read-out: pEC50 5-HT1A Receptor Y5.38A (converted)
T3 sequence (P08908 1-422 Y195A): T1 sequence (P08908 1-422 V117I) with I117V, Y195A
Method: as §1, §2, §3

SMILES | prosocial behaviors [1] | repetitive behaviors [1] | spontaneous seizures [1] | oral activity [2] | sedation [2] | EC50 [3] [nM] | Ki [4] [nM] | Ki [5] [nM] | EC50 [6] [nM]
CN(C)[C@H]1CCc2c(cccc2-c2ccccc2F)C1 [(S)-FPT] | increased | reduced | reduced | orally active | did not cause sedation | – | – | – | –
Fc1ccccc1-c1cccc2c1CC[C@H](N1CCCC1)C2 [(S)-PFPT] | – | – | – | – | – | 19.5 | 8.13 | 1.48 | 2.04
CN(C)[C@H]1CCc2c(cccc2-c2cccc3ccccc23)C1 [(S)-NAP] | – | – | – | – | – | 37.2 | 63.1 | 63.1 | 4680
